This note sets out measurements from patent publication US6310095A, “Inhibitors of protein isoprenyl transferases” (University of Pittsburgh, priority 1998, dated 2001).

Counter-ions that a name gives are not always drawn.

One assay concerns the target T1, protein farnesyltransferase (Rattus norvegicus, UniProt Q02293+Q04631).
T1 construct: Rat brain protein farnesyltransferase activity is measured; from tissue; host or cells: rat brain; purified according to Reiss et al., Cell 62:81-88 (1990), steps one through three
In words: in vitro inhibition of protein farnesyltransferase (scintillation proximity assay, biotin-K Ras B fragment). The format is biochemical. The following applies: at 1 × 10^-6 M. The essentials: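 Rat brain enzyme, purified through three steps, in a scintillation proximity assay kit with biotin-K Ras B fragment substrate at 0.1 mM final. Value is % inhibition of farnesylation.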
Turning to `CSCC[C@H](NC(=O)c1ccc(CN2CCN(C(=O)OC(C)(C)C)CC2)cc1-c1ccccc1C)C(=O)O` [Example 866], the “% inhibition of farnesyltransferase” value turned out to be 62%.
In the case of `CSCC[C@H](NC(=O)c1ccc(CN2CCN(c3ccccc3)CC2)cc1-c1ccccc1C)C(=O)O` [Example 867], the “% inhibition of farnesyltransferase” value is 71%.
Regarding `CSCC[C@H](NC(=O)c1ccc(COCc2ccc(-c3ccc(F)cc3)o2)cc1-c1cccc2ccccc12)C(=O)[O-].[Li+]` [Example 868], the “% inhibition of farnesyltransferase” value is recorded as 89%.
Turning to `CSCC[C@H](NC(=O)c1ccc(OCCCc2ccccc2)cc1-c1ccccc1C)C(=O)[O-].[Li+]` [Example 879], the “% inhibition of farnesyltransferase” value was determined as 95%.

The same assay, now with this note: at 1 × 10^-6 M; read-out: % inhibition of farnesyltransferase.
As usually defined, the inhibition is the drop in the measured response relative to a control, in per cent. In the case of `CSCC[C@H](NC(=O)c1ccc(CN(Cc2ccccc2)c2ccccc2C(C)=O)cc1-c1ccccc1C)C(=O)O` [Example 844, N-[4-N-(N-benzyl-N-(2-acetylphenyl)aminomethyl)-2-(2-methylphenyl)benzoyl]methionine lithium salt], the inhibition at 1 µM amounted to 92%.
Regarding `CSCC[C@H](NC(=O)c1ccc(CN(Cc2ccccc2)c2ccccc2Cl)cc1-c1ccccc1C)C(=O)O` [Example 846, N-[4-N-(N-benzyl-N-(2-chlorophenyl)aminomethyl)-2-(2-methylphenyl)benzoyl]methionine lithium salt], the inhibition at 1 µM worked out at 85%.
In the case of `CSCC[C@H](NC(=O)c1ccc(CNc2ccc(N3CCCCC3)cc2)cc1-c1ccccc1C)C(=O)O` [Example 862, N-[4-N-(4-piperidin-1-ylphenyl)aminomethyl-2-(2-methylphenyl)benzoyl]methionine], the inhibition at 1 µM came out at 95%.
Consider `CSCC[C@H](NC(=O)c1ccc(CN(Cc2cncs2)S(C)(=O)=O)cc1-c1ccccc1C)C(=O)O` [Example 878, N-[4-N-(methanesulfonyl-N-thiazol-2-ylmethyl)aniinomethyl-2-(2-methylphenyl)-benzoyl]methionine], for which the inhibition at 1 µM was 95%.
Same read-out and setting: to `CSCC[C@H](NC(=O)c1ccc(CN(C(=O)OC(C)(C)C)C(CC2CCCCC2)CC2CCCCC2)cc1-c1ccccc1C)C(=O)O` [Example 886, N-[4-N-t-Butyloxycarbonyl-N-(1,3-dicyclohexylpropan-2-yl)aminomethyl-2-(2-methylphenyl)-benzoyl]methionine lithium salt] belongs 35%.

Still in this assay, the particulars now being: at 1 × 10^-7 M.
Take `CSCC[C@H](NC(=O)c1ccc(/C=C/c2ccc(Oc3ccccc3Cl)cc2)cc1-c1ccccc1C)C(=O)O` [Example 854]: the “% inhibition of farnesyltransferase” value came to 78%.
On the same count and under the same terms, to `CSCC[C@H](NC(=O)c1ccc(CCc2ccc(Oc3ccccc3Cl)cc2)cc1-c1ccccc1C)C(=O)O` [Example 855] belongs 92%; to `CSCC[C@H](NC(=O)c1ccc(/C=C/c2ccc(Oc3ccccc3[N+](=O)[O-])cc2)cc1-c1ccccc1C)C(=O)O` [Example 856], 97%.
As for `CSCC[C@H](NC(=O)c1ccc(CCc2ccc(Oc3ccccc3N)cc2)cc1-c1ccccc1C)C(=O)O` [Example 857], the “% inhibition of farnesyltransferase” value is 92%.
For `CSCC[C@H](NC(=O)c1ccc(CCc2ccc(Oc3cccc(Cl)c3)cc2)cc1-c1ccccc1C)C(=O)O` [Example 859], the “% inhibition of farnesyltransferase” value is 86%.
Take `CSCC[C@H](NC(=O)c1ccc(/C=C/c2ccc(Oc3cccc([N+](=O)[O-])c3)cc2)cc1-c1ccccc1C)C(=O)O` [Example 861]: the “% inhibition of farnesyltransferase” value is on record as 65%.
Same read-out and setting: as for `CSCC[C@H](NC(=O)c1ccc(COCc2ccc(-c3ccc(F)cc3)o2)cc1-c1ccc(F)cc1Cl)C(=O)[O-].[Li+]` [Example 869], the figure is 92%.

Staying with this assay, now noted: at 1 × 10^-7 M; read-out: % inhibition of farnesyltransferase.
Consider `CSCC[C@H](NC(=O)c1ccc(CNc2ccc(N3CCOCC3)cc2)cc1-c1ccccc1C)C(=O)O` [Example 863, N-[4-N-(4-morpholin-1-ylphenyl)aminomethyl-2-(2-methylphenyl)benzoyl]methionine], for which the inhibition at 0.1 µM was 72%.
For the molecule `CSCC[C@H](NC(=O)c1ccc(CNc2ccc(Oc3ccccc3)cc2)cc1-c1ccccc1C)C(=O)O` [Example 864, N-[4-N-(4-phenoxyphenyl)aminomethyl-2-(2-methylphenyl)benzoyl]methionine], the inhibition at 0.1 µM amounted to 84%.

Still in this assay, the particulars now being: at 1 × 10^-8 M.
Take `CSCC[C@H](NC(=O)c1ccc(/C=C/c2ccc(Oc3cccc(Cl)c3)cc2)cc1-c1ccccc1C)C(=O)O` [Example 858]: the “% inhibition of farnesyltransferase” value came to 60%.
With `CSCC[C@H](NC(=O)c1ccc(CCc2ccc(Oc3ccc(Cl)cc3)cc2)cc1-c1ccccc1C)C(=O)O` [Example 860], the “% inhibition of farnesyltransferase” value was 85%.
`CSCC[C@H](NC(=O)c1ccc(CO[C@H](CSC)CC2CCCCC2)cc1-c1ccccc1C)C(=O)O` [Example 882]: the “% inhibition of farnesyltransferase” value is reported as 79%.
`CSCC[C@H](NC(=O)c1ccc(CO[C@H](CSC(C)(C)C)CC2CCCCC2)cc1-c1ccccc1C)C(=O)O` [Example 883]: the “% inhibition of farnesyltransferase” value stood at 91%.
Regarding `CSCC[C@H](NC(=O)c1ccc(CO[C@H](CSc2ccccc2)CC2CCCCC2)cc1-c1ccccc1C)C(=O)O` [Example 884], the “% inhibition of farnesyltransferase” value is recorded as 94%.
For `CSCC[C@H](NC(=O)c1ccc(CO[C@@H](CC2CCCCC2)CN2CCOCC2)cc1-c1ccccc1C)C(=O)O` [Example 885], the “% inhibition of farnesyltransferase” value turned out to be 95%.

The same assay, now with this note: at 1 × 10^-8 M; read-out: % inhibition of farnesyltransferase.
Regarding `COc1ccc(N(Cc2ccccc2)Cc2ccc(C(=O)N[C@@H](CCSC)C(=O)O)c(-c3ccccc3C)c2)cc1` [Example 840, N-[4-(N-benzyl-N-(4-methoxyphenyl)aaminomethyl)-2-(2-methylphenyl)benzoyl]methionine lithium salt], the inhibition at 0.01 µM amounted to 73%.
For the molecule `CSCC[C@H](NC(=O)c1ccc(CN(Cc2ccccc2)c2ccc([N+](=O)[O-])cc2)cc1-c1ccccc1C)C(=O)O` [Example 843, N-[4-(N-benzyl-N-(4-nitrophenyl)aninomethyl)-2-(2-methylphenyl)benzoyl]methionine lithium salt], the inhibition at 0.01 µM was determined as 96%.
With `CSCC[C@H](NC(=O)c1ccc(CN(Cc2ccccc2)c2cccc(C(C)=O)c2)cc1-c1ccccc1C)C(=O)O` [Example 845, N-[4-N-(N-benzyl-N-(3-acetylphenyl)aninomethyl)-2-(2-methylphenyl)benzoyl]methionine lithium salt], the inhibition at 0.01 µM stood at 85%.
Turning to `CSCC[C@H](NC(=O)c1ccc(CN(Cc2ccccc2)c2cccc(Cl)c2)cc1-c1ccccc1C)C(=O)O` [Example 847, N-[4-N-(N-benzyl-N(3-chlorophenyl)aminomethyl)-2-(2-methylphenyl)benzoyl]methionine lithium salt], the inhibition at 0.01 µM came out at 85%.
Take `CSCC[C@H](NC(=O)c1ccc(CN(Cc2ccccc2)c2ccc(Cl)cc2)cc1-c1ccccc1C)C(=O)O` [Example 848, N-[4-N-(N-benzyl-N-(4-chlorophenyl)aminomethyl)-2-(2-methylphenyl)benzoyl]methionine lithium salt]: the inhibition at 0.01 µM stood at 87%.
Still for that read-out and setting: as for `CSCC[C@H](NC(=O)c1ccc(CN(Cc2ccccc2)c2ccc(C(F)(F)F)cc2)cc1-c1ccccc1C)C(=O)O` [Example 853, N-[4-(N-benzyl-N-(4-trifluoromethylphenyl)aminomethvl)-2-(2-methylphenyl)benzoyl]methionine lithium salt], the figure is 85%; as for `CSCC[C@H](NC(=O)c1ccc(CN(Cc2cncs2)S(=O)(=O)c2ccc(C)cc2)cc1-c1ccccc1C)C(=O)O` [Example 877], 68%; as for `CSCC[C@H](NC(=O)c1ccc(CN(CCC2CCCCC2)C2CC2)cc1-c1ccccc1C)C(=O)O` [Example 880, N-[4-(N-2-Cyclohexylethyl-N-cyclopropylaminomethyl)-2-(2-methylphenyl)benzoyl]methionine], 95%.
Same read-out and setting: as for `CSCC[C@H](NC(=O)c1ccc(CN(Cc2cncs2)C2CCSCC2)cc1-c1ccccc1C)C(=O)O` [Example 881], the figure is 69%; as for `CSCC[C@H](NC(=O)c1ccc(CN[C@@H](CC2CCCCC2)C(=O)N2CCCCC2)cc1-c1ccccc1C)C(=O)O` [Example 887, N-[4-N-(3-Cyclohexyl-1-oxo-1-piperidin-1-ylpropan-2-yl)aminomethyl-2-(2-methylphenyl)benzoyl]-methionine lithium salt], 92%.

Staying with this assay, now noted: read-out: % inhibition of farnesyltransferase.
Take `CSCC[C@H](NC(=O)c1ccc(CN(Cc2ccccc2)c2cccc([N+](=O)[O-])c2)cc1-c1ccccc1C)C(=O)O` [Example 842, N-[4-(N-benzyl-N-(3-nitrophenyl)aminomethyl)-2-(2-methylphenyl)benzoyl]methionine lithium salt]: the inhibition at 0.01 µM came out at 88%.
Regarding `CSCC[C@H](NC(=O)c1ccc(CN(Cc2ccccc2)c2ccccc2[N+](=O)[O-])cc1-c1ccccc1C)C(=O)O` [Example 849, N-[4-(N-benzyl-N-(2-nitrophenyl)aminomethyl)-2-(2-methylphenyl)benzoyl]methionine lithium salt], the inhibition at 0.1 µM turned out to be 66%.
Take `CSCC[C@H](NC(=O)c1ccc(CN(Cc2ccccc2)c2ccccc2SC)cc1-c1ccccc1C)C(=O)O` [Example 850, N-[4-(N-benzyl-N-(2-methylthiophenyl)aminomethyl)-2-(2-methylphenyl)benzoyl]methionine lithium salt]: the inhibition at 1 µM came out at 90%.
Take `CSCC[C@H](NC(=O)c1ccc(CN(Cc2ccccc2)c2cccc(SC)c2)cc1-c1ccccc1C)C(=O)O` [Example 851, N-[4-(N-benzyl-N-(3-methylthiophenyl)aminomethyl)-2-(2-methylphenyl)benzoyl]methionine lithium salt]: the inhibition at 0.01 µM came out at 82%.
As for `CSCC[C@H](NC(=O)c1ccc(CN(Cc2ccccc2)c2ccc(SC)cc2)cc1-c1ccccc1C)C(=O)O` [Example 852, N-[4-(N-benzyl-N-(4-methylthiophenyl)aminomethyl)-2-(2-methylphenyl)benzoyl]methionine lithium salt], the inhibition at 0.01 µM came out at 79%.
